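These data come from cells grown in 96-well plates and exposed to compound for 48 hours at five concentrations. Abbreviation: GI50, concentration required for 50% inhibition of growth.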 Activity calls are given as the source filed them. Cut-off read from the data, not from the text of the source: active = GI50 up to about 1.1 µM and inactive = higher.
Experiments:
Experiment in all cases: NCI anticancer screen, dose series, 48 h
786-0 = test system: 786-0
A498 = test system: A498
CCRF-CEM = test system: CCRF-CEM
DU-145 = test system: DU-145
HOP-62 = test system: HOP-62
HT-29 = test system: HT-29
LOX IMVI = test system: LOX IMVI
MCF7 = test system: MCF7
Malme-3M = test system: Malme-3M
NCI-H23 = test system: NCI-H23
OVCAR-5 = test system: OVCAR-5
OVCAR-8 = test system: OVCAR-8
PC-3 = test system: PC-3
SF-539 = test system: SF-539
SK-MEL-28 = test system: SK-MEL-28
SW-620 = test system: SW-620
T47D = test system: T47D
U-251 = test system: U-251
UO-31 = test system: UO-31
NCI-H226 = test system: NCI-H226

SMILES	GI50 (786-0)	GI50 (A498)	GI50 (CCRF-CEM)	GI50 (DU-145)	GI50 (HOP-62)	GI50 (HT-29)	GI50 (LOX IMVI)	GI50 (MCF7)	GI50 (Malme-3M)	GI50 (NCI-H23)	GI50 (OVCAR-5)	GI50 (OVCAR-8)	GI50 (PC-3)	GI50 (SF-539)	GI50 (SK-MEL-28)	GI50 (SW-620)	GI50 (T47D)	GI50 (U-251)	GI50 (UO-31)	GI50 (NCI-H226)
Clc1c2nc3ccccc3c-2[nH]c2ccccc12	32.5 µM (inactive)	43 µM (inactive)	19.2 µM (inactive)	22 µM (inactive)	47.1 µM (inactive)	4.3 µM (inactive)	11.7 µM (inactive)	6.28 µM (inactive)	30.7 µM (inactive)	11.6 µM (inactive)	> 100 µM (inactive)	29 µM (inactive)	17.5 µM (inactive)	13.7 µM (inactive)	52.4 µM (inactive)	8.83 µM (inactive)	17.7 µM (inactive)	50.4 µM (inactive)	7.98 µM (inactive)	–
COC(=O)c1c(C)c2c(c(C)c1O)OC(=O)c1c(C)cc(O)c(C=O)c1O2	> 100 µM (inactive)	–	> 100 µM (inactive)	> 100 µM (inactive)	> 100 µM (inactive)	> 100 µM (inactive)	–	> 100 µM (inactive)	> 100 µM (inactive)	> 100 µM (inactive)	> 100 µM (inactive)	> 100 µM (inactive)	> 100 µM (inactive)	> 100 µM (inactive)	> 100 µM (inactive)	> 100 µM (inactive)	> 100 µM (inactive)	> 100 µM (inactive)	–	> 100 µM (inactive)
OCC(O)C1OC2CC1Nc1ccccc1N2 (stereo not given)	> 100 µM (inactive)	8.85 µM (inactive)	78.2 µM (inactive)	> 100 µM (inactive)	> 100 µM (inactive)	> 100 µM (inactive)	> 100 µM (inactive)	–	> 100 µM (inactive)	> 100 µM (inactive)	> 10 µM (inactive)	> 100 µM (inactive)	> 100 µM (inactive)	> 88.7 µM (inactive)	> 100 µM (inactive)	> 100 µM (inactive)	> 100 µM (inactive)	> 100 µM (inactive)	> 100 µM (inactive)	> 100 µM (inactive)
O=C1Nc2cccc(Cl)c2/C1=C\c1c(Cl)nc2sccn12	9.31 µM (inactive)	33.1 µM (inactive)	> 100 µM (inactive)	65 µM (inactive)	15 µM (inactive)	> 100 µM (inactive)	63.8 µM (inactive)	> 100 µM (inactive)	76 µM (inactive)	21.7 µM (inactive)	> 100 µM (inactive)	31.1 µM (inactive)	64.4 µM (inactive)	5.2 µM (inactive)	> 100 µM (inactive)	> 100 µM (inactive)	44.6 µM (inactive)	6.03 µM (inactive)	27.7 µM (inactive)	–
O=C1C=CC(=O)c2c1ccc1c3ccccc3n(Cc3ccc([N+](=O)[O-])cc3)c21	> 100 µM (inactive)	–	10.9 µM (inactive)	> 100 µM (inactive)	> 100 µM (inactive)	> 100 µM (inactive)	–	> 100 µM (inactive)	–	> 100 µM (inactive)	–	> 100 µM (inactive)	> 100 µM (inactive)	> 100 µM (inactive)	> 100 µM (inactive)	38.7 µM (inactive)	52.8 µM (inactive)	> 100 µM (inactive)	> 100 µM (inactive)	> 100 µM (inactive)
COc1ccc(CC2OC3(CCCCC3)CC3CCCCN32)cc1 (stereo not given)	> 100 µM (inactive)	–	47 µM (inactive)	> 100 µM (inactive)	> 100 µM (inactive)	57.4 µM (inactive)	48.3 µM (inactive)	72.9 µM (inactive)	> 100 µM (inactive)	> 100 µM (inactive)	> 100 µM (inactive)	40.9 µM (inactive)	> 100 µM (inactive)	–	> 100 µM (inactive)	39.4 µM (inactive)	> 100 µM (inactive)	> 100 µM (inactive)	> 100 µM (inactive)	53 µM (inactive)
CS(=O)(=O)OC1CN2CCC1CC2 (stereo not given)	> 100 µM (inactive)	> 100 µM (inactive)	> 100 µM (inactive)	> 100 µM (inactive)	> 100 µM (inactive)	> 100 µM (inactive)	> 100 µM (inactive)	> 100 µM (inactive)	> 100 µM (inactive)	> 100 µM (inactive)	> 100 µM (inactive)	> 100 µM (inactive)	> 100 µM (inactive)	–	> 100 µM (inactive)	> 100 µM (inactive)	> 100 µM (inactive)	> 100 µM (inactive)	> 100 µM (inactive)	–
Cc1ccc(C2NC(=N)NC3=C2CCOc2c3ccc3ccccc23)cc1 (stereo not given)	2.61 µM (inactive)	17.3 µM (inactive)	0.468 µM (active)	7.35 µM (inactive)	4.94 µM (inactive)	1.81 µM (inactive)	–	4.91 µM (inactive)	–	34.9 µM (inactive)	41.6 µM (inactive)	33.6 µM (inactive)	21.9 µM (inactive)	1.57 µM (inactive)	5.55 µM (inactive)	6.84 µM (inactive)	25.2 µM (inactive)	15.9 µM (inactive)	42.9 µM (inactive)	–
COC(=O)C1CCC(=O)N1C(c1cc(OC)c(OC)c(OC)c1)c1cc(OC)c(OC)c(OC)c1 (stereo not given)	> 100 µM (inactive)	> 100 µM (inactive)	–	> 100 µM (inactive)	> 100 µM (inactive)	> 100 µM (inactive)	> 100 µM (inactive)	> 100 µM (inactive)	–	–	> 100 µM (inactive)	> 100 µM (inactive)	> 100 µM (inactive)	> 100 µM (inactive)	> 100 µM (inactive)	> 100 µM (inactive)	> 100 µM (inactive)	> 100 µM (inactive)	> 100 µM (inactive)	–
Cc1ccc(C)c(N2C(=O)C(=O)c3c(C)ccc(C)c32)c1	29.3 µM (inactive)	–	–	27.7 µM (inactive)	40.6 µM (inactive)	20.8 µM (inactive)	17.4 µM (inactive)	23.4 µM (inactive)	20.7 µM (inactive)	21 µM (inactive)	57.1 µM (inactive)	23.8 µM (inactive)	23 µM (inactive)	16.7 µM (inactive)	33.5 µM (inactive)	27.7 µM (inactive)	11.6 µM (inactive)	17.2 µM (inactive)	22.9 µM (inactive)	27.7 µM (inactive)
O=[N+]([O-])c1ccc(-c2nnc(C34CC5CC(CC(C5)C3)C4)o2)cc1	> 100 µM (inactive)	> 100 µM (inactive)	> 100 µM (inactive)	> 100 µM (inactive)	> 100 µM (inactive)	> 100 µM (inactive)	> 100 µM (inactive)	–	> 100 µM (inactive)	> 100 µM (inactive)	> 100 µM (inactive)	–	> 100 µM (inactive)	> 100 µM (inactive)	> 100 µM (inactive)	> 100 µM (inactive)	> 100 µM (inactive)	> 100 µM (inactive)	> 100 µM (inactive)	> 100 µM (inactive)
